Measured values taken from paper PMC5301048, “Selection and early clinical evaluation of the brain‐penetrant 11β‐hydroxysteroid dehydrogenase type 1 (11β‐HSD1) inhibitor UE2343 (Xanamem™)” (British Journal of Pharmacology, 2017).
Like-named read-outs stand apart in the source and are kept apart here.

Assays:
[1] = Plasma protein binding, rat plasma; type: in vitro ADME; details: mean ± SD [n]
[2] = Multiple ascending dose study, pharmacokinetics; type: in vivo; details: human; for AUC0–12h / Ae(0–12h) (%) / Ae(0–12h), amount excreted in urine / Oral clearance: mean (CV%); for estimated maximal CSF concentration / estimated mean CSF nadir at steady state (Cmin): calculated from plasma levels and CSF:plasma ratio; for Tmax / Cmax / half-life: plasma, oral
Description: (§1) A double‐blind, randomized, placebo‐controlled multiple ascending dose study was carried out at Linear Clinical Research Ltd, Nedlands, Australia. Each cohort consisted of eight healthy male subjects. Each subject received UE2343 or placebo twice daily (b.i.d ) (12 hourly) in the fed state for 9 days (Day 1 to Day 9) and once on the morning of Day 10 (19 doses in total). Dose cohorts were 10, 20 and 35 mg. Dose escalation and selection was dependent upon satisfactory review of the blinded safety (up to Day 17 ± 2) and plasma pharmacokinetics (up to Day 12) data from the preceding cohort. Safety, pharmacokinetic and pharmacodynamic assessments were made at pre‐determined time‐points during each part of the study.
(§2) Laboratory evaluation of clinical safety parameters was carried out using standard validated methods. Measurement of plasma pharmacodynamic markers [adrenocorticotropic hormone (ACTH), cortisol, 4‐androstenedione, testosterone and dehydroepiandrosterone sulphate (DHEA‐s)] was carried out using commercially available kits. Each method was fully validated prior to analysis. Urinary steroid metabolites were measured according to established methods (Boonen et al., 2013). UE2343 levels in plasma, urine and CSF was determined by LC–MS/MS using fully validated methods.
(§3) The data and statistical analysis comply with the recommendations on experimental design and analysis in pharmacology (Curtis et al., 2015). Levels of probability, P < 0.05 were deemed to constitute the threshold for statistical significance. Pharmacokinetic parameters, except Tmax (time of maximum observed drug concentration), are given as mean ± coefficient of variation (CV%). Tmax is given as median ± range. For each of the pharmacodynamic parameters [ACTH, cortisol, adrenal androgens, tetrahydrocortisols (THFs)/tetrahydrocortisone (THE) ratio], the maximum % change from baseline for each subject was subjected to ANOVA. For selected data, an additional covariate factor for the baseline was also included in the ANOVA/analysis of covariance (ANCOVA) model. Associated P‐values <0.05 for each comparison have been presented.

[3] = target: T1, human 11β‐HSD1 (Homo sapiens, UniProt P28845); assay: Inhibition of human 11β-HSD1 in stably transfected HEK293 cells; type: cell-based
T1 construct: a construct containing the full‐length gene coding for the human 11β‐HSD1 enzyme; expressed in transfected cells; host or cells: HEK293
Description: Inhibition of human 11β‐HSD1 was determined in HEK293 cells stably transfected with a construct containing the full‐length gene coding for the human 11β‐HSD1 enzyme according to the protocol described by Sooy et al., 2010.

[4] = Plasma protein binding, dog plasma; type: in vitro ADME; details: mean ± SD [n]
[5] = tested on: HPA axis hormones and steroids; assay: Multiple ascending dose study, HPA axis hormones and steroids; type: in vivo; details: human, not significant vs placebo
Description: as §1, §2
as §3, with “Associated P‐values <0.05 for each comparison have been presented.” left out

[6] = target: T2, CYP2D6 (Homo sapiens, UniProt P10635); assay: Cytochrome P450 inhibition, CYP2D6; type: in vitro ADME; details: human liver microsomes; read-out: CYP450 isoform 2D6 IC50
T2 construct: tissue Cyprotex Discovery Limited; host or cells: human liver microsomes
Description: Testing was performed by Cyprotex Discovery Limited, Cheshire, UK. Six test compound concentrations (0.4, 1, 4, 10, 40 and 100 μM; final DMSO concentration 0.25%, final microsome concentration 0.25 mg·mL^−1) were either pre‐incubated for 30 min in the absence and presence of NADPH or underwent a 0 min pre‐incubation with human liver microsomes. At the end of the pre‐incubation period, the probe substrate for each cytochrome P450 (CYP450) isoform (30 μM) and NADPH (1 mM) were then added (final DMSO concentration 0.3%), and the samples were incubated for 5 min at 37°C. Probe substrates were as follows: 1A2 – phenacetin, 2C9 – diclofenac, 2C19 – mephenytoin, 2D6 – dextromethorphan, 3A4 – midazolam and testosterone. Samples were subjected to LC–MS/MS analysis to determine metabolite concentrations. A decrease in the formation of the metabolite compared with vehicle control was used to calculate an IC50 value (test compound concentration which produces 50% inhibition) for each experimental condition.

[7] = Microsomal stability, human liver microsomes; type: in vitro ADME; details: mean ± SD [n]
Description: Microsomal stability was determined using pooled human, rat or dog liver microsomes according to the method described in WO2011135276 (Webster et al., 2011a).

[8] = tested on: 29 enzymes and 72 receptors, including the glucocorticoid and mineralocorticoid receptors; assay: Off-target diversity screen (data not shown); details: in words

T1 sequence (P28845 whole entry): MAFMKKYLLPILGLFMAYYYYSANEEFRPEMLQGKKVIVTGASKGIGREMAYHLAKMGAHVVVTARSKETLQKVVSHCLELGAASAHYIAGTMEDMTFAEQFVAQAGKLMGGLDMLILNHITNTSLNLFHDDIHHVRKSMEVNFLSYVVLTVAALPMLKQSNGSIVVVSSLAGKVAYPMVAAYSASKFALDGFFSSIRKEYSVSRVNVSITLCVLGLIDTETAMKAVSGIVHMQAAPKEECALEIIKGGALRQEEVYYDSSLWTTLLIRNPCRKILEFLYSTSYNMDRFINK
T2 sequence (P10635 whole entry, canonical isoform): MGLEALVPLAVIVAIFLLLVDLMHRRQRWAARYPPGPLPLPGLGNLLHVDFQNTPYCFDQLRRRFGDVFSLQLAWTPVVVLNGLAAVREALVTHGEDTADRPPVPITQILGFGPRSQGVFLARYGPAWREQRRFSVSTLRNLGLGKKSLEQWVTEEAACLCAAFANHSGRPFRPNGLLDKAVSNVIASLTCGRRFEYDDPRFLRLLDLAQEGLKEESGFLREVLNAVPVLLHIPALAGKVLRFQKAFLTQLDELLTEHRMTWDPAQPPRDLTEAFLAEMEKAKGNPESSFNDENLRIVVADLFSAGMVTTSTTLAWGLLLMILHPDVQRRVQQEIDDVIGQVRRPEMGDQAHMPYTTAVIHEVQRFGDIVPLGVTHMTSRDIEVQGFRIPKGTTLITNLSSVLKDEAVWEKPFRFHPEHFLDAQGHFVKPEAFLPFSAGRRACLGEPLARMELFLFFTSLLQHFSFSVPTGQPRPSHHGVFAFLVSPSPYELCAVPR

O=C(c1csc(-c2cn[nH]c2)c1)N1C2CCC1CC(O)(c1ncccn1)C2 (stereo not shown) [compound 4]
Plasma protein binding (% unbound), rat [1]: 26 ± 0 [2] % unbound | AUC0–12h ([2]; 10 mg b.i.d, Day 1): 207 (79%) ng^.h·mL^−1 | Ae(0–12h) (%) ([2]; 10 mg b.i.d, Day 1): 0.35 (50%) | Ae(0–12h), amount excreted in urine ([2]; 10 mg b.i.d, Day 1): 34.6 (50%) μg | AUC0–12h ([2]; 10 mg b.i.d, Day 10): 1917 (66%) ng^.h·mL^−1 | Ae(0–12h) (%) ([2]; 10 mg b.i.d, Day 10): 4.08 (46%) | Ae(0–12h), amount excreted in urine ([2]; 10 mg b.i.d, Day 10): 408 (46%) μg | Oral clearance ([2]; 10 mg b.i.d, Day 10): 7.24 (60%) L·h^−1 | estimated maximal CSF concentration ([2]; 10 mg b.i.d): 20 ng/mL | estimated mean CSF nadir at steady state (Cmin) ([2]; 10 mg b.i.d): 13 ng/mL | AUC0–12h ([2]; 20 mg b.i.d, Day 1): 623 (69%) ng^.h·mL^−1 | Ae(0–12h) (%) ([2]; 20 mg b.i.d, Day 1): 0.54 (92%) | Ae(0–12h), amount excreted in urine ([2]; 20 mg b.i.d, Day 1): 107 (92%) μg | AUC0–12h ([2]; 20 mg b.i.d, Day 10): 3175 (30%) ng^.h·mL^−1 | Ae(0–12h) (%) ([2]; 20 mg b.i.d, Day 10): 3.22 (38%) | Ae(0–12h), amount excreted in urine ([2]; 20 mg b.i.d, Day 10): 644 (38%) μg | Oral clearance ([2]; 20 mg b.i.d, Day 10): 6.85 (33%) L·h^−1 | estimated maximal CSF concentration ([2]; 20 mg b.i.d): 34 ng/mL | estimated mean CSF nadir at steady state (Cmin) ([2]; 20 mg b.i.d): 22 ng/mL | AUC0–12h ([2]; 35 mg b.i.d, Day 1): 1843 (33%) ng^.h·mL^−1 | Ae(0–12h) (%) ([2]; 35 mg b.i.d, Day 1): 1.03 (46%) | Ae(0–12h), amount excreted in urine ([2]; 35 mg b.i.d, Day 1): 362 (46%) μg | AUC0–12h ([2]; 35 mg b.i.d, Day 10): 7909 (36%) ng^.h·mL^−1 | Ae(0–12h) (%) ([2]; 35 mg b.i.d, Day 10): 3.84 (29%) | Ae(0–12h), amount excreted in urine ([2]; 35 mg b.i.d, Day 10): 1345 (29%) μg | Oral clearance ([2]; 35 mg b.i.d, Day 10): 5.02 (43%) L·h^−1 | estimated maximal CSF concentration ([2]; 35 mg b.i.d): 81 ng/mL | estimated mean CSF nadir at steady state (Cmin) ([2]; 35 mg b.i.d): 50 ng/mL | day by which steady state was achieved ([2]; 12 hourly dosing): ≤ 5 days | fraction excreted in urine in the dosing interval (% Ae) ([2]; at steady state (Day 10)): approximately 4% | increase in AUC0–12 from first dose to steady state ([2]; highest dose level (35 mg b.i.d), in words): greater than fourfold | Tmax ([2]; single and multiple dosing, range, read-out: plasma Tmax): 3 to 6 h | Cmax ([2]; male, 10 mg, 10 mg b.i.d, Day 1, mean (CV%)): 29.1 ng/mL | Tmax ([2]; male, 10 mg, 10 mg b.i.d, Day 1, median (range), read-out: Tmax): 6 h | Cmax ([2]; male, 10 mg, 10 mg b.i.d, Day 10, mean (CV%)): 207 ng/mL | half-life ([2]; male, 10 mg, 10 mg b.i.d, Day 10, mean (CV%), read-out: t 1/2 (converted)): 13.8 h | Tmax ([2]; male, 10 mg, 10 mg b.i.d, Day 10, median (range), read-out: Tmax): 4 h | Cmax ([2]; male, 20 mg, 20 mg b.i.d, Day 1, mean (CV%)): 89.2 ng/mL | Tmax ([2]; male, 20 mg, 20 mg b.i.d, Day 1, median (range), read-out: Tmax): 4 h | Cmax ([2]; male, 20 mg, 20 mg b.i.d, Day 10, mean (CV%)): 365 ng/mL | half-life ([2]; male, 20 mg, 20 mg b.i.d, Day 10, mean (CV%), read-out: t 1/2 (converted)): 11.2 h | Tmax ([2]; male, 20 mg, 20 mg b.i.d, Day 10, median (range), read-out: Tmax): 3 h | Cmax ([2]; male, 35 mg, 35 mg b.i.d, Day 1, mean (CV%)): 268 ng/mL | Tmax ([2]; male, 35 mg, 35 mg b.i.d, Day 1, median (range), read-out: Tmax): 4 h | Cmax ([2]; male, 35 mg, 35 mg b.i.d, Day 10, mean (CV%)): 892 ng/mL | half-life ([2]; male, 35 mg, 35 mg b.i.d, Day 10, mean (CV%), read-out: t 1/2 (converted)): 9.99 h | Tmax ([2]; male, 35 mg, 35 mg b.i.d, Day 10, median (range), read-out: Tmax): 4 h | half-life ([2]; male, 35 mg, multiple doses 10, 20 and 35 mg every 12 h, range across doses, read-out: terminal t 1/2): 10 to 14 h | Tmax ([2]; male, multiple doses, range across doses, read-out: median time to peak concentration following each dose): 4 to 6 h | IC50 ([3]; HEK293 cell IC50 in ng·mL^−1, read-out: IC50 value (11β‐HSD1) expressed as mass concentration (converted)): 23.6 nM | IC50 ([3]; HEK293 cells, mean ± SD [n], read-out: Human 11β‐HSD1 IC50 in HEK293 cells): 24 ± 15 nM | Plasma protein binding (% unbound), dog [4]: 44 ± 0 [1] % unbound | mean maximum percentage change in ACTH (from baseline) ([5]; 10 mg b.i.d): 222% | mean maximum percentage change in ACTH (from baseline) ([5]; 20 mg b.i.d): 195% | mean maximum percentage change in ACTH (from baseline) ([5]; 35 mg b.i.d): 230% | IC50 [6]: > 50000 nM | Liver microsomal stability (% parent at 30 min), human [7]: 99 ± 1 [3] % parent at 30 min | off‐target profile in diversity screen [8]: clean off‐target profile
